The test system of data set [1] is Erwinia amylovora. Nature of the data set: Spot test screening of AMPs on plates. On the set-up: key to Spot test result at 1 mM / Spot test result at 500 µM / Spot test result at 250 µM / Spot test result at 100 µM / Spot test result at 50 µM / Spot test result at 25 µM / Spot test result at 12.5 µM: +: Clear plaque formation; -: no plaque formation. The following applies: for Spot test result at 12.5 µM: 5 µL peptide at 12.5 µM spotted on plate with E. amylovora 10^8 CFU/mL; for Spot test result at 12.5 µM / Spot test result at 25 µM / Spot test result at 50 µM / Spot test result at 100 µM / Spot test result at 250 µM / Spot test result at 500 µM / Spot test result at 1 mM: overnight at 25 °C; for Spot test result at 25 µM: 5 µL peptide at 25 µM spotted on plate with E. amylovora 10^8 CFU/mL; for Spot test result at 50 µM: 5 µL peptide at 50 µM spotted on plate with E. amylovora 10^8 CFU/mL; for Spot test result at 100 µM: 5 µL peptide at 100 µM spotted on plate with E. amylovora 10^8 CFU/mL; for Spot test result at 250 µM: 5 µL peptide at 250 µM spotted on plate with E. amylovora 10^8 CFU/mL; for Spot test result at 500 µM: 5 µL peptide at 500 µM spotted on plate with E. amylovora 10^8 CFU/mL; for Spot test result at 1 mM: 5 µL peptide at 1 mM spotted on plate with E. amylovora 10^8 CFU/mL; for Spot test, killing of E. amylovora at 50 µM (in words): peptide 50 µM. The data set is classed as cell-based, Erwinia amylovora strain PGL Z1. The protocol:
The bacterial material consisted of E. amylovora strain PGL Z1, isolated in 2013 from pear in Apulia region (Italy), and Xanthomonas campestris pv. campestris strain CFBP 1710 (X. campestris), isolated in 1975 from Brassica oleracea var. botrytis in France, which was used as a control to investigate the bactericidal activity and action mode of AMPs against two different bacteria. The bacterial strains were cultured on yeast extract peptone glucose agar (YPGA) and broth (YPG) media, consisting of 0.5% yeast extract, 0.5% peptone, 1% glucose and 1.5% agar. E. amylovora and X. campestris cell suspensions were prepared in sterile distilled water and the suspensions were adjusted to an optical density at 600 nm (OD600) of 0.1, which corresponds approximately to 10^8 CFU/mL.
The nine AMPs were screened using the spot test to select those with the best antibacterial activity against E. amylovora. Briefly, 300 µL of E. amylovora suspension (10^8 CFU/mL) was poured into the plates and maintained at room temperature for 15 min. Subsequently, 5 μL from each peptide at different concentrations (1000, 500, 250, 100, 50, 25 and 12.5 μM) was spotted onto the surface of the plates, followed by overnight incubation at 25 °C. Sterile distilled water was spotted in the plates as a control.
Supplementary Table S1. Results of the spot tests for the nine antimicrobial peptides used against Erwinia
Ascaphin-8 GF-19 + + + + + - -
DASamP1 FF-13 + + + - - - -
DASamP2 IL-14 + + + + + - -
Lycotoxin I IL-25 + + + + - - -
Maculatin 1.3 GF-21 + + + - - - -
Piscidin 1 FG-22 + + + + + - -
BP178 KL-29 + + + + + + -
RIJK2 RV-12 + + + - - - -
+: Clear plaque formation; -: no plaque formation.

The test system of data set [2] is Erwinia amylovora. Nature of the data set: Fluorescence microscopy LIVE/DEAD BacLight (SYTO9/PI). The data set is classed as cell-based, Erwinia amylovora strain PGL Z1. To be noted: 1 h, calculated from SYTO9 and PI counts. The protocol: The bactericidal activity of the selected peptides (GF19, FG22, IL14, and KL29) was assessed by a test contact for 24 h, as described (Section 2.3), coupled with v-qPCR assay using the PMAxx™ (Biotium, Rome, Italy). PMAxx™ is a photo-reactive dye that binds to DNA with high affinity; upon cell lysis, it covalently attaches to disrupted DNA that cannot be amplified by PCR. This unique feature makes PMAxx™ extremely useful in selective detection of bacterial cells with intact plasma membranes by qPCR. Briefly, after 24 h at 25 °C, 200 µL of the mixture was transferred to a new tube and treated with PMAxx at a final concentration of 7.5 μM. Subsequently, samples were incubated in the dark at room temperature for 8 min, followed by photoactivation for 15 min. Genomic DNA of all samples was extracted using the cetyltrimethylammonium bromide (CTAB) method. v-qPCR was carried out in a thermocycler apparatus (Bio-Rad CFX96, BioRad, Milan, Italy), using Ea-lsc primers and conditions reported in Laforest et al.. The v-qPCR cycles consisted of an initial denaturation step of 95 °C for 5 min; 45 cycles of 95 °C for 30 s and 60 °C for 30 s with fluorescence readings at each cycle. For the FM assay, aliquots of E. amylovora suspension were incubated with 50 and 250 μM of selected peptides for 1 h at room temperature. The same protocol was used for X. campestris at different concentrations (100, 50, 25, 12.5, 6.25, 2 μM) using KL29 peptide, known for its potent bactericidal activity against X. campestris. The LIVE/DEAD ®BacLight™ viability kit (ThermoFisher Scientific, Milan, Italy) was used according to the manufacturer’s recommendation to assess the integrity of bacteria cells treated with the peptides at 1 h post-infection (Stocks, 2004). Briefly, 9 μL of sample was mixed with 0.5 μL of SYTO9 and 0.5 μL of propidium iodide (PI) for 15 min at room temperature in the dark. Photomicrographs were taken with a Nikon E800 microscope using a fluorescein isothiocyanate (480/30 excitation filter, DM505 dichroic mirror, 535/40 emission filter) and tetramethyl rhodamine isocyanate (546/10 excitation filter, DM575 dichroic mirror, 590 emission filter) fluorescence filter sets.
Supplementary Table S2. The statistical analysis consisted of counting the coloured spo ts (green: SYTO9 and red: PI) in the different channels of 10 replicas for the two concentrations of each antimicrobial peptide and the relative percentages of viable cells is calculated.
250 µM 50 µM % of viability
(1 picture or pasted object on this page, not shown here)

The next data set concerns immature pear fruits. The format is in vivo, pear (cv. 'Recchia falsa'). The protocol: (§1) The possible toxicity of the selected peptides was evaluated using immature pear fruits (cv. ‘Recchia falsa’), and horse erythrocyte cells, respectively, as plant and animal cell models. Briefly, six fruits for each peptide were pricked to approximately 5 mm deep and inoculated with 100 µL of the corresponding peptide at 50 and 250 µM concentrations. Fruits were kept in a chamber at room temperature for 5 days and repeatedly examined for the development of lesions. The peptide toxicity was measured as lesion diameter. Erythrocytes from a horse blood sample (provided by the University of Bari, Department of Veterinary Medicine, Valenzano, Italy) were used for the hemolytic assay. The erythrocytes were challenged with AMPs at 50 and 250 µM for 3 h and their possible hemolytic activity was observed under light microscope.

Data set [3] has as its system Erwinia amylovora. Nature of the data set: In vivo antibacterial activity on inoculated immature pear fruits. The following applies: immature pears, 6 days at 25 °C, eight replicates. The arrangement: species or system Erwinia amylovora on pear fruits (cv. 'Recchia falsa'). The protocol: To evaluate the in vivo antibacterial activity of selected AMPs, immature pear fruits (cv. ‘Recchia falsa’) were inoculated with E. amylovora and AMPs were applied. Briefly, ten-week-old pears were disinfected by immersion in a 70% ethanol solution for 2 min and then rinsed 3 times in sterile distilled water. Disinfected fruits were pricked to approximately 5 mm deep, with a sterile micropipette tip and inoculated with 20 µL of E. amylovora suspension (10^8 CFU/mL). Once the fruits had absorbed the bacteria, two concentrations of peptides (50 and 250 µM) were used; 20 µL of the concentration was introduced into the inoculation site and incubated in a humid chamber at 25 °C for 6 days. Fruits inoculated with sterile water and with E. amylovora suspension were included as controls. The experiment consisted of eight replicates per treatment, and symptoms were recorded at 6 days post-infection. The symptoms developed in immature pears (i.e., necrosis or bacterial exudates) were evaluated by measuring the diameter of necrotic lesions. The data were then analyzed using variance analysis (ANOVA), followed by Duncan’s multiple range test (α = 0.05), using SPSS statistical software (version 24.0, IBM, Armonk, N.Y., USA). All data were presented as mean values ± standard deviation (SD).

For another data set, the system named is horse erythrocyte cells. The data set is classed as cell-based. The protocol:
as §1

[4] abbreviates: 100 µL peptide at 50 and 250 µM, 5 days at room temperature, six fruits per peptide.
[5] abbreviates: 20 µL peptide at 50 µM into inoculation site.
Setting [6] is: 20 µL peptide at 250 µM into inoculation site.
Where [7] appears, read: peptide 50 and 250 µM, 3 h, light microscope.

Where two headings read alike, the source gives them in different places. Ends that are not written are not given here.

Regarding “RIVWVRIRRWFV-NH2 [RV12, RIJK2, synthetic antimicrobial peptide, synthesized by ProteoGenix]”, in the data set with Erwinia amylovora [1], the “Spot test result at 12.5 µM” value was “-”, the “Spot test result at 25 µM” value was “-”, the “Spot test result at 50 µM” value was “-” and the “Spot test result at 100 µM” value is “-”. In addition, in the data set on Erwinia amylovora [1], the “Spot test result at 250 µM” value was “+”, the “Spot test result at 500 µM” value is reported as “+” and the “Spot test result at 1 mM” value is “+”.

In the case of “VQFRIRVRIVIRK-NH2 [VK13, 1036, synthetic antimicrobial peptide, synthesized by ProteoGenix]”, in the data set with Erwinia amylovora [1], the “Spot test result at 12.5 µM” value is reported as “-”, the “Spot test result at 25 µM” value is on record as “-”, the “Spot test result at 50 µM” value was “-” and the “Spot test result at 100 µM” value is “-”. In addition, in the data set with Erwinia amylovora [1], the “Spot test result at 250 µM” value is reported as “+”, the “Spot test result at 500 µM” value is “+” and the “Spot test result at 1 mM” value was “+”.

In the case of “GLLGLLGSVVSHVVPAIVGHF-NH2 [GF21, Maculatin 1.3, antimicrobial peptide of frog origin, synthesized by ProteoGenix]”, in the data set with Erwinia amylovora [1], the “Spot test result at 12.5 µM” value is on record as “-”, the “Spot test result at 25 µM” value is listed as “-”, the “Spot test result at 50 µM” value is on record as “-” and the “Spot test result at 100 µM” value is on record as “-”. For the same substance, in the data set with Erwinia amylovora [1], the “Spot test result at 250 µM” value was “+”, the “Spot test result at 500 µM” value is given as “+” and the “Spot test result at 1 mM” value is recorded as “+”.

For IKWKKLLRAAKRIL-NH2 [IL14, DASamP2], the “% of viability” value in the data set with Erwinia amylovora [2] (peptide 50 µM) is 15%. In addition, in the data set with Erwinia amylovora [2] (peptide 250 µM), the “% of viability” value is 48%. Also, the “Toxicity (hypersensitive or cytotoxic activity) on pear fruits (in words)” value (shortened to “Toxicity … on pear fruits (in words)”) with immature pear fruits (setting [4]) was “toxicologically safe for plant and animal cells”. The “Reduction of fire blight symptoms (necrotic lesion diameter)” value (“Reduction of fire blight symptoms” below) with Erwinia amylovora [3] (setting [5]) stood at 61%. For the same substance, in the data set with Erwinia amylovora [3] (setting [6]), the “Reduction of fire blight symptoms” value is listed as 76%. Also, in the data set on horse erythrocyte cells (setting [7]), the “Toxicity (hemolytic or cytotoxic activity) on horse erythrocytes (in words)” value (shortened to “Toxicity … on horse erythrocytes (in words)”) was “toxicologically safe for plant and animal cells”. In the data set on Erwinia amylovora [1], the “Spot test result at 12.5 µM” value was “-”, the “Spot test result at 25 µM” value was “-”, the “Spot test result at 50 µM” value is reported as “+” and the “Spot test result at 100 µM” value is “+”. In addition, in the data set on Erwinia amylovora [1], the “Spot test result at 250 µM” value is on record as “+”; the “Spot test result at 500 µM” value is recorded as “+”; the “Spot test result at 1 mM” value was “+”; the “Spot test, killing of E. amylovora at 50 µM (in words)” value is “could kill E. amylovora”.

As for “FFHHIFRGIVHVGKTIHRLVTG [FG22, Piscidin 1]”, the “Toxicity … on pear fruits (in words)” value in the data set with immature pear fruits (in vivo) was “toxicologically safe for plant and animal cells”. The “Toxicity … on horse erythrocytes (in words)” value with horse erythrocyte cells was “toxicologically safe for plant and animal cells”.

With “GFKDLLKGAAKALVKTVLF-NH2 [GF19, Ascaphin-8]”, in the data set with Erwinia amylovora [2] (peptide 50 µM), the “% of viability” value is listed as 44%. The “% of viability” value in the data set with Erwinia amylovora [2] (peptide 250 µM) is on record as 64%. For the same substance, the “Toxicity … on pear fruits (in words)” value with immature pear fruits (setting [4]) was “toxicologically safe for plant and animal cells”. For the same substance, in the data set on Erwinia amylovora [3] (setting [5]), the “Reduction of fire blight symptoms” value is 43%. The “Reduction of fire blight symptoms” value in the data set with Erwinia amylovora [3] (setting [6]) was found to be 48%. Also, in the data set on horse erythrocyte cells (setting [7]), the “Toxicity … on horse erythrocytes (in words)” value was “toxicologically safe for plant and animal cells”. In the data set with Erwinia amylovora [1], the “Spot test result at 12.5 µM” value is “-”, the “Spot test result at 25 µM” value is on record as “-”, the “Spot test result at 50 µM” value was “+” and the “Spot test result at 100 µM” value is recorded as “+”. For the same substance, in the data set with Erwinia amylovora [1], the “Spot test result at 250 µM” value is “+”; the “Spot test result at 500 µM” value is given as “+”; the “Spot test result at 1 mM” value is listed as “+”; the “Spot test, killing of E. amylovora at 50 µM (in words)” value is “could kill E. amylovora”.

Take Lycotoxin I [IL25]: in the data set on Erwinia amylovora [1], the “Spot test result at 12.5 µM” value is reported as “-”, the “Spot test result at 25 µM” value is listed as “-”, the “Spot test result at 50 µM” value is listed as “-” and the “Spot test result at 100 µM” value is “+”. In the data set on Erwinia amylovora [1], the “Spot test result at 250 µM” value was “+”, the “Spot test result at 500 µM” value is given as “+” and the “Spot test result at 1 mM” value is “+”.

Consider “FFGKVLKLIRKIF-NH2 [FF13, DASamP1, synthetic antimicrobial peptide, synthesized by ProteoGenix]”, for which, in the data set on Erwinia amylovora [1], the “Spot test result at 12.5 µM” value is given as “-”, the “Spot test result at 25 µM” value was “-”, the “Spot test result at 50 µM” value is “-” and the “Spot test result at 100 µM” value is given as “-”. Further, in the data set on Erwinia amylovora [1], the “Spot test result at 250 µM” value is given as “+”, the “Spot test result at 500 µM” value was “+” and the “Spot test result at 1 mM” value was “+”.

(Values after PMC9824012, “Exploring Antimicrobial Peptides Efficacy against Fire Blight (Erwinia amylovora)” (Plants, 2022).)
